Assay results from patent US9682043B2, “Method of preparation of mixed phase co-crystals with active agents” (MedCrystalForms, LLC, priority 2003, dated 2017).

Test: Intrinsic dissolution of itraconazole mixed phase co-crystals
Format: physicochemical
Settings: 3% sodium lauryl sulfate 20% isopropanol:0.1 N HCl (1:1)
Text: FIG. 5 is a graph showing the intrinsic dissolution rate of itraconazole mixed phase co-crystals in a 3% sodium lauryl sulfate 20% isopropanol:0.1 N HCl (1:1) media.

- Intrinsic Dissolution Rate: 11.1 mcg/min/cm^2
Substance: Itraconazole [Control (Intact API)]
